Experimental findings from US10626109B2, “N-hetaryl(thio)carbonyl-2-(benzocycloalken-1-yl)cyclamines and their use as fungicides” (BAYER CROPSCIENCE AKTIENGESELLSCHAFT, priority 2013, dated 2020) are described below.

Each structure is given as a SMILES string.

A short description of the data set: log P by HPLC on reversed-phase column (C 18), EEC Directive 79/831 Annex V.A8. The data set is classed as physicochemical. Particulars: Table 1, HPLC, 0.1% aqueous formic acid and acetonitrile, 40° C. As for the experimental part:
In table 1, the log P values were determined in accordance with EEC Directive 79/831 Annex V.A8 by HPLC (High Performance Liquid Chromatography) on a reversed-phase column (C 18), using the method described below: Temperature: 40° C.; Mobile phases: 0.1% aqueous formic acid and acetonitrile; linear gradient from 10% acetonitrile to 90% acetonitrile. Calibration was carried out using unbranched alkan-2-ones (comprising 3 to 16 carbon atoms) with known log P values (determination of the log P values by the retention times using linear interpolation between two successive alkanones). lambda-max-values were determined using UV-spectra from 200 nm to 400 nm and the peak values of the chromatographic signals. In table 2, M+H (Apcl+) and log P are defined as for table 1.

The mark [1] stands for this setting: second value of a mixture of two diastereoisomers.
Setting [2] is: single value, or first value of a mixture of two diastereoisomers.

Regarding `Cn1cc(C(=O)N2CCCC2C2CCc3c(F)cccc32)c(C(F)F)n1` (mixture of isomers) [I.01], the logP is, setting by setting: under setting [1], 2.98; under setting [2], 2.88.

On to `Cn1nc(C(F)F)c(C(=O)N2CCCC2C2CCc3c(F)cccc32)c1F` (mixture of isomers) [I.03], for which the logP by setting is: under setting [1], 3.35; under setting [2], 3.31.

With `Cn1nc(C(F)F)c(C(=O)N2CCCC2C2CCc3cc(Cl)cc(Cl)c32)c1Cl` (mixture of isomers) [I.09], the logP under setting [1] turned out to be 4.41 and the logP under setting [2] is recorded as 4.34.

As to `Cn1nc(C(F)F)c(C(=O)N2CCCC2C2CCc3cc(F)cc(F)c32)c1Cl` (mixture of isomers) [I.12], the logP reads like this: under setting [1], 3.59; under setting [2], 3.55.

For `Cn1nc(C(F)F)c(C(=O)N2CCCC2C2CCc3cc(F)cc(F)c32)c1F` (mixture of isomers) [I.13], the logP runs as follows: under setting [1], 3.41; under setting [2], 3.35.

With `Cn1cc(C(=O)N2CCCC2C2CCc3cc(F)ccc32)c(C(F)F)n1` (mixture of isomers) [I.17], the logP runs as follows: under setting [1], 3.00; under setting [2], 2.84.

As to `Cn1nc(C(F)F)c(C(=O)N2CCCC2C2CCc3cc(F)ccc32)c1F` (mixture of isomers) [I.18], the logP runs as follows: under setting [1], 3.37; under setting [2], 3.29.

Take `Cn1cc(C(=O)N2CCCC2C2CCc3ccc(Cl)cc32)c(C(F)F)n1` (mixture of isomers) [I.19]: the logP was 3.27 under setting [1] and 3.19 under setting [2].

On to `Cn1nc(C(F)F)c(C(=O)N2CCCC2C2CCc3ccc(Cl)cc32)c1Cl` (mixture of isomers) [I.20], for which the logP is, setting by setting: under setting [1], 3.92; under setting [2], 3.87.

Consider `Cn1nc(C(F)F)c(C(=O)N2CCCC2C2CCc3ccc(Cl)cc32)c1F` (mixture of isomers) [I.21], for which the logP reads like this: under setting [1], 3.70; under setting [2], 3.68.

Regarding `Cn1nc(C(F)F)c(C(=O)N2CCCC2C2CCCc3ccccc32)c1Cl` (mixture of isomers) [I.25], the logP reads like this: under setting [1], 3.79; under setting [2], 3.68.

With `Cn1nc(C(F)F)c(C(=S)N2CCCC2C2CCCc3ccccc32)c1Cl` (mixture of isomers) [I.28], the logP under setting [1] stood at 4.77 and the logP under setting [2] was found to be 4.56.

`Cn1cc(C(=O)N2CCCCC2C2CCc3ccccc32)c(C(F)F)n1` (mixture of isomers) [I.29]: the log partition coefficient (logP) is 3.13 under setting [1] and 2.96 under setting [2].

On to `Cn1nc(C(F)F)c(C(=O)N2CCCCC2C2CCc3ccccc32)c1F` (mixture of isomers) [I.30], for which the logP came to 3.55 under setting [1] and 3.44 under setting [2].

In the case of `Cn1cc(C(=O)N2CCCCC2C2CCCCc3ccccc32)c(C(F)F)n1` (mixture of isomers) [I.33], the logP came to 3.68 under setting [1] and 3.50 under setting [2].

With `Cn1nc(C(F)F)c(C(=O)N2CCCCC2C2CCCCc3ccccc32)c1F` (mixture of isomers) [I.34], the logP by setting is: under setting [1], 4.15; under setting [2], 3.96.

As to `Cn1cc(C(=O)N2CCCCC2C2CCOc3ccccc32)c(C(F)F)n1` (mixture of isomers) [I.35], the logP reads like this: under setting [1], 2.90; under setting [2], 2.46.

As for `Cn1nc(C(F)F)c(C(=O)N2CCCCC2C2CCOc3ccccc32)c1F` (mixture of isomers) [I.36], the logP by setting is: under setting [1], 3.27; under setting [2], 2.86.

As for `O=C(c1ccsc1Br)N1CCCC1C1CCc2c(F)cccc21` (single isomer, unassigned) [I.04], the logP under setting [2] amounted to 3.87.

For the compound `O=C(c1ccsc1Br)N1CCCC1C1CCc2c(F)cccc21` (single isomer, unassigned) [I.05], the logP under setting [2] was 3.96.

Consider `Cc1cc(C(=O)N2CCCC2C2CCc3c(F)cccc32)c(C)o1` (single isomer, unassigned) [I.06], for which, under setting [2], the logP is 3.74.

Regarding `Cc1cc(C(=O)N2CCCC2C2CCc3c(F)cccc32)c(C)o1` (single isomer, unassigned) [I.07], the logP under setting [2] was 3.90.

Usually logP stands for the decadic logarithm of the partition coefficient of the neutral form, usually between octanol and water.
